According to PubChem BioAssay (NCI):
“And” between values parts separate entries of the source, which are not always exact repeats. Identical values can stand only once.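 Results reflect a 48-hour exposure of cells in 96-well plates to compound at five concentrations. GI50: concentration for 50% inhibition of growth. Definition used: TGI = concentration required for complete inhibition of growth.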

Experiments:
Assay in all cases: DTP human tumour cell line panel, 48 h
786-0 renal = system: 786-0 renal
HS 578T breast = system: HS 578T breast
IGROV1 ovarian = system: IGROV1 ovarian
MCF7 breast = system: MCF7 breast
NCI-H23 lung = system: NCI-H23 lung
OVCAR-5 ovarian = system: OVCAR-5 ovarian
PC-3 prostate = system: PC-3 prostate
RXF 393 renal = system: RXF 393 renal
SK-OV-3 ovarian = system: SK-OV-3 ovarian
UO-31 renal = system: UO-31 renal

Row | SMILES | GI50 (786-0 renal) | TGI (786-0 renal) | GI50 (HS 578T breast) [µM] | TGI (HS 578T breast) | GI50 (IGROV1 ovarian) | TGI (IGROV1 ovarian) | GI50 (MCF7 breast) | TGI (MCF7 breast) [µM] | GI50 (NCI-H23 lung) | TGI (NCI-H23 lung) | GI50 (OVCAR-5 ovarian) | TGI (OVCAR-5 ovarian) | GI50 (PC-3 prostate) [µM] | TGI (PC-3 prostate) | GI50 (RXF 393 renal) [µM] | TGI (RXF 393 renal) | GI50 (SK-OV-3 ovarian) | TGI (SK-OV-3 ovarian) | GI50 (UO-31 renal) | TGI (UO-31 renal)
1 | O=C1c2ccc3c4c(ccc(c24)C(=O)N1CCCNCc1ccccc1)C(=O)N(CCCNCc1ccccc1)C3=O | 0.251 µM | 0.837 µM | 0.531 | 3.24 µM | 0.11 µM | 0.405 µM | 0.0808 µM | 0.33 | 0.18 µM | 0.42 µM | 0.233 µM | 0.648 µM | 0.203 | 0.622 µM | 0.135 | 0.27 µM | 0.285 µM | 0.82 µM | 0.148 µM | 0.364 µM
2 | COc1nc2c(cc1S(=O)(=O)c1ccccc1)CCc1c-2cnn1Cc1ccccc1 | 13.6 µM | > 100 µM | 13.3 | > 100 µM | 31.5 µM | > 100 µM | 3.48 µM | 38.9 | 8.45 µM | > 100 µM | > 100 µM | > 100 µM | 4.23 | > 100 µM | 6.04 | > 100 µM | 9.86 µM | > 100 µM | 4.3 µM | > 100 µM
3 | Cc1cc(C(=O)N[C@@H](CCC(=O)O)C(=O)O)sc1CC[C@@H]1CNc2nc(N)[nH]c(=O)c2C1 | < 0.01 µM | > 100 µM | 0.114 | > 100 µM | 0.0463 µM | > 100 µM | 0.0102 µM | > 100 | 0.0952 µM | > 100 µM | 0.026 µM | > 100 µM | < 0.01 | > 100 µM | < 0.0153 | > 100 µM | < 0.0205 µM | > 100 µM | < 0.01 µM | > 100 µM
4 | CN(C)CCNC(=O)c1cccc2cc([N+](=O)[O-])ccc12 | 1.62 µM and 0.254 µM | 8.14 µM and 3.53 µM |  | 7.16 µM | 1.79 µM and 0.245 µM | 14.2 µM and 2.32 µM |  | 15.3 | 1.69 µM and 0.211 µM | 6.68 µM and 0.758 µM |  | 5.47 µM and 0.87 µM |  | 9.44 µM |  | 0.471 µM | 3.48 µM and 0.535 µM | 33.1 µM and 14.5 µM | 1.28 µM and 0.168 µM | 4.6 µM and 1 µM
5 | Cc1cc(O)c(C2=NN(c3ccc(S(N)(=O)=O)cc3)C(c3ccccc3O)C2)cc1Cl (stereo not drawn) | 2.04 µM | 3.88 µM | 2.95 | 10.5 µM | 1.07 µM | 5.66 µM | 2.25 µM | 6.12 | 2 µM | 4.38 µM | 1.7 µM | 3.61 µM | 1.33 | 3.26 µM | 2.05 | 5.78 µM | 3.86 µM | 13.2 µM | 0.181 µM | 5.65 µM
6 | Cc1c2cnccc2c(C)c2c1c1cc(C(=O)O)ccc1n2C | 1.23 µM | 11.8 µM | 0.891 | 4.82 µM | 0.911 µM | 9.84 µM | 1.02 µM | 13.6 | 0.774 µM | 3.28 µM | 1.91 µM | 9.52 µM | 1.68 | 8.09 µM | 0.666 | 2.33 µM | 0.905 µM | 7.63 µM | 0.49 µM | 4.21 µM
7 | OC(COc1cccc2ccccc12)CN1CCN(c2ccc(Cl)cc2)CC1 (stereo not drawn) | 16.3 µM | 33.1 µM | 23.4 | > 100 µM | 14.6 µM | 40 µM | 29.9 µM | > 100 | 29.4 µM | > 100 µM | > 100 µM | > 100 µM | 15.3 | 46.2 µM | 28.6 | 75.9 µM | 14.7 µM | 45.2 µM | 15.5 µM | 36.1 µM
8 | Cc1ccc(Nc2[nH]c(C(=O)c3ccc(Cl)cc3)c(N)c2C(=S)Nc2ccccc2)nc1 | 35.7 µM | > 100 µM | 21.8 | 76.2 µM | 31.3 µM | > 100 µM | 33.1 µM | > 100 | 35.1 µM | > 100 µM | 33.1 µM | > 100 µM | 26.5 | > 100 µM | 35.9 | > 100 µM | 52.3 µM | > 100 µM | 24.3 µM | 86.1 µM
9 | CCC(C(=O)c1cccs1)C(O)(C(F)(F)F)C(F)(F)F (stereo not drawn) |  | > 100 µM |  | > 100 µM |  | > 100 µM |  | > 100 |  | > 100 µM |  | > 100 µM |  | > 100 µM |  | > 100 µM |  | > 100 µM |  | > 100 µM
10 | COc1ccc2[nH]c3c(C)c4cc[n+](C)cc4c(C)c3c2c1 | 0.267 µM and 0.161 µM and 0.898 µM | 5.49 µM |  | 1.13 µM and 0.759 µM | 1.01 µM and 1.13 µM |  | 1.51 µM and 0.885 µM |  | 0.325 µM | 3.3 µM [middle of 4 runs] | 2.32 µM and 3.07 µM |  |  | 99.3 µM and > 250 µM | 1.54 | 16.5 µM [middle of 4 runs] | 4.31 µM and 1.57 µM |  | 13.6 µM and 15.6 µM | 
11 | Fc1c[c-]c(-c2ccccn2)c(F)c1.[CH3-].[Pt+2].c1ccc([PH+](c2ccccc2)c2ccccn2)cc1 | 1.93 µM | 4.03 µM | 1.96 | 5.89 µM | 1.71 µM | 5.02 µM | 1.22 µM | 3.23 | 1.57 µM | 3.64 µM | 1.72 µM | 3.63 µM | 1.41 | 3.89 µM | 1.32 | 2.76 µM | 5.09 µM | > 100 µM | 1.08 µM | 2.28 µM
12 | O=C(CCc1ccco1)NC1CCN(CC2(c3ccc(Cl)cc3)CCC2)CC1 | 12.6 µM | 25.8 µM | 13.6 | 31.4 µM | 19.5 µM | 45.8 µM | 11.5 µM | 26.7 | 16.9 µM | 38.7 µM | 15.1 µM | 29.1 µM | 14.1 | 31.1 µM | 8.53 | 22.6 µM | 16.9 µM | 32.9 µM | 7.37 µM | 21.3 µM
13 | COc1cccc2c1nc1cccc(OC)c1[n+]2[O-] | 3.61 µM | 15 µM | 5.23 | 31.2 µM | 2.35 µM | 15.9 µM | 0.941 µM | 12.9 | 2.56 µM | 18.9 µM | 27.8 µM | 93 µM | 13.3 | 37 µM | 4.36 | 22.1 µM | 3.19 µM | 15.7 µM | 3.07 µM | 15.6 µM
14 | CCc1nc(-n2c(CC)nc3ccccc3c2=O)nc(N)c1-c1ccc(Cl)cc1 | 8.13 µM | > 100 µM | 48.4 | > 100 µM | 48.5 µM | > 100 µM | > 50.9 µM | > 100 | 10.9 µM | > 100 µM | 30.9 µM | > 100 µM | 5.74 | > 100 µM | > 100 | > 100 µM | > 100 µM | > 100 µM | 23.7 µM | > 100 µM
15 | CCN1CCC2(CC1)NC(=O)c1c(c3ccc(Cl)c(Cl)c3n1C)C2C#N (stereo not drawn) | 1.7 µM | 3.13 µM | 1.81 | 5.57 µM | 3.11 µM | 8.97 µM | 1.56 µM | 3.28 | 3.71 µM | 16 µM | 1.98 µM | 5.79 µM | > 100 | > 100 µM | 1.24 | 4.13 µM | 6.99 µM | 22.2 µM | 1.84 µM | 5.03 µM
16 | COc1ccccc1-c1ccc2nc(NC(=O)Nc3cc(C(F)(F)F)cc(C(F)(F)F)c3)sc2c1 | 1.44 µM | 3.25 µM | 2.35 | 7.67 µM | 2.83 µM | 10.7 µM | 2.28 µM | 10.9 | 2.02 µM | 7.09 µM | 2.54 µM | 9.66 µM | 1.49 | 6.93 µM | 2.19 | 6.18 µM | 2.92 µM | 11.4 µM | 1.79 µM | 4.07 µM
17 | COc1ccc(N2CCN(CN3CCN(c4ccc(OC)cc4)C3)C2)cc1 | > 100 µM | > 100 µM | > 100 | > 100 µM | 17 µM | > 100 µM | 69.5 µM | > 100 | 48 µM | > 100 µM | > 100 µM | > 100 µM | > 100 | > 100 µM | > 100 | > 100 µM | > 100 µM | > 100 µM | > 100 µM | > 100 µM
18 | CCOC(=O)/C(=C/c1ccccc1)C(=O)c1ccccc1 | 3.02 µM | 8.09 µM | 3.03 | 18.8 µM | 2.86 µM | 8.05 µM | 3.13 µM | 15.9 | 3.75 µM | 16.5 µM | 4.05 µM | 16.9 µM | 4.6 | 22.7 µM | 2.04 | 3.92 µM | 14.4 µM | 27.9 µM | 1.76 µM | 3.55 µM
19 | Nc1ccc(-c2ccc(Nc3cc(S(=O)(=O)O)c(N)c4c3C(=O)c3ccccc3C4=O)cc2)c(S(=O)(=O)O)c1 |  | > 100 µM |  | > 100 µM |  | > 100 µM |  | > 100 |  | > 100 µM |  | > 100 µM |  | > 100 µM |  | > 100 µM |  | > 100 µM |  | > 100 µM
20 | COc1cc(/C=C2\CCCC3C2=Nc2ccccc2NC3c2cc(OC)c(OC)c(OC)c2)cc(OC)c1OC (stereo not drawn) | 2.55 µM | 8 µM | 4.75 | > 100 µM | 4.1 µM | 18.5 µM | 2.48 µM | > 100 | 2.15 µM | 13.8 µM | 3.68 µM | 11.9 µM | 2.69 | > 100 µM | 2.08 | 5.31 µM | 4.87 µM | > 100 µM | 1.66 µM | 4.48 µM
